The values below come from the supplement of paper PMC10307832.

Experiment in all cases: relative viability (nuclei count vs DMSO), 5 days (fraction); higher = more cells survive
Compound in test [1]: CCC1=CN=CN=C1N2CCN(CC2)CC3=NC4=C(N3)C=C(C=C4)C(F)(F)F + CC(C)C[C@H](NC(=O)[C@H](Cc1ccccc1)NC(=O)c1cnccn1)B(O)O [Bortezomib] (partner 0.002 µM)
Put shortly:
(§1)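 One day after seeding in 1536-well plates, lung cancer cell lines were dosed by pin tool. Dosing was either single-drug or a fixed anchor-drug dose plus five library-drug doses (not always all listed) in √10 steps. After 5 days, nuclei were stained in one fix-and-stain step and counted on 4× images, and relative viability is the nuclei count of treated wells over that of vehicle wells, given as the median of duplicate plates.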

Compound in test [2]: CCn1c(-c2nonc2N)nc2cnc(Oc3cccc(NC(=O)c4ccc(OCCN5CCOCC5)cc4)c3)cc21 + Cc1cc(Nc2cc(N3CCN(C)CC3)nc(Sc3ccc(NC(=O)C4CC4)cc3)n2)n[nH]1 [Tozasertib] (partner 0.1 µM)
Summed up: as §1

Compound in test [3]: CCC1=CN=CN=C1N2CCN(CC2)CC3=NC4=C(N3)C=C(C=C4)C(F)(F)F + COc1cc2c(Oc3ccc(NC(=O)C4(C(=O)Nc5ccc(F)cc5)CC4)cc3F)ccnc2cc1OCCCN1CCOCC1 [Foretinib] (partner 0.25 µM)
Put shortly: as §1

Compound in the test “Mirin + Vorinostat”: N=C1NC(=O)/C(=C/c2ccc(O)cc2)S1 [Mirin] + O=C(CCCCCCC(=O)Nc1ccccc1)NO [Vorinostat] (partner 1 µM)
Summed up: as §1

With NCI-H3122, the relative viability in test [1] (first compound 0.04 µM) came out at 1.11; in test [1] (first compound 0.1265 µM) it was 0.968; in test [1] (first compound 0.4 µM), 1; in test [1] (first compound 1.265 µM), 1.03; in test [1] (first compound 4 µM), 1.05; in test [2] (first compound 0.04 µM) it was 0.501. Moreover, the relative viability was found to be 0.395 in test [2] (first compound 0.1265 µM); 0.385 in test [2] (first compound 0.4 µM); 0.332 in test [2] (first compound 1.265 µM); 0.325 in test [2] (first compound 4 µM); 0.924 in test [3] (first compound 0.04 µM); 0.968 in test [3] (first compound 0.1265 µM). Besides, the relative viability in test [3] (first compound 0.4 µM) amounted to 0.94; in test [3] (first compound 1.265 µM), 0.978; in test [3] (first compound 4 µM), 0.977; with Mirin + Vorinostat (first compound 0.25 µM), 1.06; with Mirin + Vorinostat (first compound 0.7906 µM) it was 1.01; in the test with Mirin + Vorinostat (first compound 2.5 µM), 1.08. Also, the figures for the relative viability with Mirin + Vorinostat (first compound 7.906 µM) and with Mirin + Vorinostat (first compound 25 µM) were 0.997 and 1.05, respectively.

For PC-3 [JPC-3], the relative viability in test [1] (first compound 0.04 µM) was determined as 0.838; in test [1] (first compound 0.1265 µM) it was 0.765; in test [1] (first compound 0.4 µM), 0.757; in test [1] (first compound 1.265 µM), 0.807; in test [1] (first compound 4 µM) it was 0.854; in test [2] (first compound 0.04 µM), 0.94. For the same cell line, the relative viability in test [2] (first compound 0.1265 µM) was determined as 0.866; in test [2] (first compound 0.4 µM) it was 1.03; in test [2] (first compound 1.265 µM), 0.861; in test [2] (first compound 4 µM), 0.77; in test [3] (first compound 0.04 µM), 1.08; in test [3] (first compound 0.1265 µM), 0.9. Moreover, the relative viability was 0.997 in test [3] (first compound 0.4 µM); 0.964 in test [3] (first compound 1.265 µM); 0.971 in test [3] (first compound 4 µM); 0.919 in the test with Mirin + Vorinostat (first compound 0.25 µM); 0.722 in the test with Mirin + Vorinostat (first compound 0.7906 µM); 0.81 with Mirin + Vorinostat (first compound 2.5 µM). Further, the relative viability is 0.86 in the test with Mirin + Vorinostat (first compound 7.906 µM) and 1.18 in the test with Mirin + Vorinostat (first compound 25 µM).

In the case of PC-14, the relative viability in test [1] (first compound 0.04 µM) was 0.938; in test [1] (first compound 0.1265 µM), 0.815; in test [1] (first compound 0.4 µM), 0.856; in test [1] (first compound 1.265 µM), 0.848; in test [1] (first compound 4 µM) it was 0.935; in test [2] (first compound 0.04 µM), 0.691. The relative viability in test [2] (first compound 0.1265 µM) stood at 0.47; in test [2] (first compound 0.4 µM), 0.422; in test [2] (first compound 1.265 µM) it was 0.326; in test [2] (first compound 4 µM) it was 0.321; in test [3] (first compound 0.04 µM), 1.01; in test [3] (first compound 0.1265 µM), 0.825. In addition, the relative viability in test [3] (first compound 0.4 µM) worked out at 0.947; in test [3] (first compound 1.265 µM), 0.963; in test [3] (first compound 4 µM), 0.997; with Mirin + Vorinostat (first compound 0.25 µM) it was 0.798; in the test with Mirin + Vorinostat (first compound 0.7906 µM) it was 0.638; in the test with Mirin + Vorinostat (first compound 2.5 µM) it was 0.729. Moreover, the relative viability with Mirin + Vorinostat (first compound 7.906 µM) amounted to 0.719; in the test with Mirin + Vorinostat (first compound 25 µM), 0.746.

Take RERF-LC-KJ: the relative viability was found to be 1.04 in test [1] (first compound 0.04 µM); 1.01 in test [1] (first compound 0.1265 µM); 1.11 in test [1] (first compound 0.4 µM); 0.941 in test [1] (first compound 1.265 µM); 1.11 in test [1] (first compound 4 µM); 0.528 in test [2] (first compound 0.04 µM). In addition, the relative viability in test [2] (first compound 0.1265 µM) turned out to be 0.318; in test [2] (first compound 0.4 µM), 0.283; in test [2] (first compound 1.265 µM), 0.249; in test [2] (first compound 4 µM) it was 0.217; in test [3] (first compound 0.04 µM), 0.763; in test [3] (first compound 0.1265 µM), 0.755. Moreover, the relative viability in test [3] (first compound 0.4 µM) is 0.82; in test [3] (first compound 1.265 µM) it was 0.851; in test [3] (first compound 4 µM) it was 0.82; in the test with Mirin + Vorinostat (first compound 0.25 µM), 0.565; with Mirin + Vorinostat (first compound 0.7906 µM), 0.816; in the test with Mirin + Vorinostat (first compound 2.5 µM) it was 0.686. Also, the relative viability was determined as 0.709 in the test with Mirin + Vorinostat (first compound 7.906 µM) and 0.664 with Mirin + Vorinostat (first compound 25 µM).

Consider SK-LU-1, for which the relative viability is 1.09 in test [1] (first compound 0.04 µM); 1.03 in test [1] (first compound 0.1265 µM); 1.16 in test [1] (first compound 0.4 µM); 1.13 in test [1] (first compound 4 µM); 0.402 in test [2] (first compound 0.04 µM); 0.371 in test [2] (first compound 0.1265 µM). The relative viability in test [2] (first compound 0.4 µM) is 0.29; in test [2] (first compound 1.265 µM) it was 0.238; in test [2] (first compound 4 µM) it was 0.218; in test [3] (first compound 0.04 µM), 0.876; in test [3] (first compound 0.1265 µM), 0.785; in test [3] (first compound 0.4 µM) it was 0.76. For the same cell line, the relative viability in test [3] (first compound 1.265 µM) was determined as 0.813; in test [3] (first compound 4 µM), 0.77; with Mirin + Vorinostat (first compound 0.25 µM), 0.771; in the test with Mirin + Vorinostat (first compound 0.7906 µM), 0.823; in the test with Mirin + Vorinostat (first compound 2.5 µM) it was 0.815; in the test with Mirin + Vorinostat (first compound 7.906 µM), 0.599. Besides, the relative viability with Mirin + Vorinostat (first compound 25 µM) is 0.6.

In the case of SW 1573, the relative viability worked out at 1.09 in test [1] (first compound 0.04 µM); 1.08 in test [1] (first compound 0.1265 µM); 0.937 in test [1] (first compound 0.4 µM); 0.893 in test [1] (first compound 1.265 µM); 0.892 in test [1] (first compound 4 µM); 0.255 in test [2] (first compound 0.04 µM). In addition, the relative viability in test [2] (first compound 0.1265 µM) was 0.149; in test [2] (first compound 0.4 µM) it was 0.12; in test [2] (first compound 1.265 µM) it was 0.145; in test [2] (first compound 4 µM) it was 0.0839; in test [3] (first compound 0.04 µM), 0.732; in test [3] (first compound 0.1265 µM) it was 0.863. Moreover, the relative viability in test [3] (first compound 0.4 µM) came to 0.912; in test [3] (first compound 1.265 µM), 0.815; in test [3] (first compound 4 µM), 0.8; in the test with Mirin + Vorinostat (first compound 0.25 µM) it was 0.867; in the test with Mirin + Vorinostat (first compound 0.7906 µM), 0.772; with Mirin + Vorinostat (first compound 2.5 µM), 0.765. Moreover, the relative viability in the test with Mirin + Vorinostat (first compound 7.906 µM) was 0.308; in the test with Mirin + Vorinostat (first compound 25 µM), 0.56.
